This note sets out measurements from patent US20230285393A1, “METHOD FOR TREATING GRAFT VERSUS HOST DISEASE CAUSED BY HEMATOPOIETIC STEM CELL TRANSPLANTATION” (BEIJING TIDE PHARMACEUTICAL CO., LTD., priority 2020, published 2023).

For the first experiment, the target named is ROCK2 (Homo sapiens (Human), UniProt O75116). Kind of experiment: ROCK2 Kinase Activity Assay (HTRF KinEASE-STK S2 kit). Format: biochemical.
Sequence of ROCK2 (O75116 1-553 limits assumed): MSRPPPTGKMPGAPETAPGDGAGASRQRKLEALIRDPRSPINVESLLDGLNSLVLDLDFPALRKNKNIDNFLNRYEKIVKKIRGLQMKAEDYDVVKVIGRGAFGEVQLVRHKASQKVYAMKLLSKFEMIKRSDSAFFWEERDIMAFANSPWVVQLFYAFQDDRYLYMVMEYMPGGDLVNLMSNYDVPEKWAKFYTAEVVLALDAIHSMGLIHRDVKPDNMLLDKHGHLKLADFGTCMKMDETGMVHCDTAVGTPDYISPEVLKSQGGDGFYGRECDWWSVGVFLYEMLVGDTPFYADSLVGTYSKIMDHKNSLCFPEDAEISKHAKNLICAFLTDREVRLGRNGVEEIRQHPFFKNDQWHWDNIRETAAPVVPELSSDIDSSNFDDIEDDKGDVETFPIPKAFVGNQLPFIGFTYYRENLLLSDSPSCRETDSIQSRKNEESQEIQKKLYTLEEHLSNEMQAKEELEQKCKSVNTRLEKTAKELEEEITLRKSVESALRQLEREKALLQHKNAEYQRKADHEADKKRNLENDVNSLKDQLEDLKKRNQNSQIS
Conditions: not given
On the procedure: The kinase IC50 was determined by a commercialized CISBIO kinase detection kit, HTRF KinEASE-STK S2 kit (62ST2PEC). ROCK2 (01-119) employed in the reaction was purchased from Carna Biosciences.
Before the assay, the following working solutions as needed were formulated with corresponding reagents according to the instruction of the kinase detection kit: 1×kinase buffer, 5×STK-S2 substrate working solution (1.5 μM) and 5×ATP working solution (1.5 μM), 5×ROCK2 kinase working solution, 4×Streptavidin-XL665 working solution, and 4×STK-Ab-Cryptate 2 detection solution. Then the assay was performed according to the following procedure.
A solution of a compound at a concentration of 10000 nM was prepared with the 1×kinase buffer containing 2.5% DMSO. Gradient dilution of the solution of the compound was performed with the kinase buffer containing DMSO, so as to obtain solutions of a test compound at 9 different concentrations. In addition to wells of test compounds, a positive well (containing all the reagents except the compound) and a negative well (containing all the reagents except the test compound and kinase) were set. Except for the control wells (positive and negative wells), a solution of a test compound (4 μL) was added to each of the reaction wells, and a solution of 2.5% DMSO was added to the control wells. Then the substrate (2 μM, i.e., 2 μL 5×STK-S2 substrate working solution) was added to each of the reaction wells. The 5×ROCK2 kinase working solution (2 μL, containing 1.4 ng ROCK2 kinase) was added to each of the reaction wells except for the negative well, the volume of which was made up with the 1×kinase buffer (2 μL). The 5×ATP working solution (2 μL) was added to each of the reaction wells, and the mixtures were incubated at room temperature for 2 hours. After the kinase reaction was complete, the 4×Streptavidin-XL665 working solution was added to each of the reaction wells, the solutions were mixed, followed by immediate addition of the 4×STK-Ab-Cryptate 2 detection solution (5 μL), and the mixtures were incubated at room temperature for 1 hour. The fluorescence signal was read on ENVISION (Perkinelmer) (excitation wavelength: 320 nm, and emission wavelength: 665 nm and 615 nm). The inhibitory rate in each well was calculated based on the fluorescence intensity value: ER (Emission Ratio)=(fluorescence intensity at 665 nm/fluorescence intensity at 615 nm); inhibitory rate=(ERpositive−ERtest compound)/(ERpositive−ERnegative)*100%. Curves were plotted and fitted to obtain the median inhibitory concentration (IC50) of each teat compound with the PRISM 5.0 software.
What is called IC50 is the midpoint of a concentration-inhibition curve. A higher IC50 goes with weaker potency in that assay. In turn, `O=C(c1cc2ccc(-c3nccc(Nc4ccc(-c5cn[nH]c5)cc4)n3)cc2[nH]1)N1CC(F)(F)C1` [Compound 006] showed an IC50 of 34 nM.
Compound `Cn1c(C(=O)N2CC(F)(F)C2)cc2ccc(-c3nccc(Nc4ccc(-c5cn[nH]c5)cc4)n3)cc21` [Compound 007] yielded an IC50 of 33 nM.
Same read-out and setting: to `O=C(c1cc2ccc(-c3ncc(F)c(Nc4ccc(-c5cn[nH]c5)cc4)n3)cc2[nH]1)N1CC(F)(F)C1` [Compound 008] belongs 24 nM; to `Cn1c(C(=O)N2CC(F)(F)C2)cc2ccc(-c3ncc(F)c(Nc4ccc(-c5cn[nH]c5)cc4)n3)cc21` [Compound 009], 12 nM; to `O=C(c1cc2ccc(-c3nccc(Nc4ccc(-c5cn[nH]c5)c(F)c4)n3)cc2[nH]1)N1CC(F)(F)C1` [Compound 010], 61 nM.
Still for that read-out and setting: for `Cn1c(C(=O)N2CC(F)(F)C2)cc2ccc(-c3nccc(Nc4ccc(-c5cn[nH]c5)c(F)c4)n3)cc21` [Compound 011] the value was 9 nM.
On to `O=C(C1CC(F)(F)C1)N1Cc2ccc(-c3nccc(Nc4ccc(-c5cn[nH]c5)cc4)n3)cc2C1` [Compound 020], for which half-maximal inhibition (IC50) required 44 nM.
In the case of `O=C(C1CC(F)(F)C1)N1Cc2ccc(-c3ncc(F)c(Nc4ccc(-c5cn[nH]c5)cc4)n3)cc2C1` [Compound 021], the half-maximal inhibitory concentration (IC50) came out at 45 nM.
As to `O=C(N1Cc2ccc(-c3nccc(Nc4ccc(-c5cn[nH]c5)cc4)n3)cc2C1)N1CC(F)(F)C1` [Compound 022], the IC50 is 75 nM.
Still for that read-out and setting: for `Fc1cc(Nc2ccnc(-c3ccc4cc(-c5nccs5)[nH]c4c3)n2)ccc1-c1cn[nH]c1` [Compound 128] the value was 27 nM.

A further experiment deals with irradiated BALB/c recipient mice infused with C57BL/6 donor bone marrow and spleen cells. Kind of experiment: Therapeutic effect in mice: allogeneic bone marrow/spleen cell transplantation GVHD model, survival rate. Format: in vivo. Particulars: 30 mpk oral gavage once daily for 23 days, compared with the model group. On the procedure: Male BALB/c recipient mice were irradiated with 8.5 Gy of total body irradiation (TBI) (Gammacell 40, NORPION International Co., Ltd., irradiation source: ^137Cs). A suspension of bone marrow cells (BMC) and spleen cells (SC) from C57BL/6 (H-2b) donor mice was prepared and infused via tail vein to irradiated BALB/c recipient mice at 0.5 mL/per mouse (containing 10×10^6 bone marrow cells and 6.25×10^6 spleen cells from the allogeneic C57BL/6 (H-2b) donor mice). Subsequently, the BALB/c mice were randomly divided into two groups: a model group (G2) and a compound 007 group (G3). An irradiation group (G4) (i.e., receiving ^137Cs irradiation only without donor mouse cell suspension infusion) and a syngeneic bone marrow transplantation group (G1) (a suspension containing 10×10^6 bone marrow cells from syngeneic BALB/c mice was administered to mice in this group via tail vein infusion). G1-G4 groups comprised 9 mice per group. The mice in the model group, the irradiation group and the syngeneic bone marrow transplantation group were administered with vehicle (a 0.2% Tween-80 aqueous solution) by oral gavage, once a day for 23 days. The mice in the compound 007 group were administered with 30 mpk of compound 007 by oral gavage, once daily for 23 days from the first day of model establishment. The survival rate of the animals was recorded daily.
Consider `Cn1c(C(=O)N2CC(F)(F)C2)cc2ccc(-c3nccc(Nc4ccc(-c5cn[nH]c5)cc4)n3)cc21` [Compound 007], for which the survival rate entry is “significantly improved the survival rate”.

The subject of the next experiment is CD4 Naïve T cells from BALB/c mice mixed with C57BL/6 dendritic cells. Kind of experiment: Allogeneic Mixed Lymphocyte Reaction, inflammatory factors in supernatant. Format: cell-based, mouse. To be noted: 125 nM, 250 nM, 500 nM, 1000 nM; 5 days of culture; compared with control group. On the procedure:
Bone marrow cells from C57BL/6 (B6) mouse were isolated and incubated with granulocyte-macrophage colony stimulating factor (GM-CSF, 20 ng/mL, Biolegend, 713704) and interleukin-4 (IL-4, 10 ng/mL, Biolegend, 10715004) for 7 days, followed by addition of 20 ng/mL lipopolysaccharide (LPS) and incubation for 24 hours, the dendritic cells (DC) were collected. The CD4 Naïve T cells from BALB/c mice were extracted and isolated with a commercial kit (Dakewe, 480039). […] CD4 Naïve T cells and 25×10^3 DC cells were mixed and cultured. Compound 007 was added to the mixed cells at four concentrations (125 nM, 250 nM, 500 nM, and 1000 nM), respectively, and a control group (to which an equal amount of the medium was added) was set. After 5 days of culture, the supernatants were collected and kits were employed for the detection of inflammatory factors (IL-6 (Duyou, 1210602), TNF-α (Duyou, 1217202), IFN-γ (Duyou, 1210002), and IL-2 (Duyou, 1210202)).
In the case of `Cn1c(C(=O)N2CC(F)(F)C2)cc2ccc(-c3nccc(Nc4ccc(-c5cn[nH]c5)cc4)n3)cc21` [Compound 007], the “levels of the inflammatory factors (IL-6, TNF-α, IFN-γ, IL-2)” value was “significantly reduced the levels of the inflammatory factors”.
